From PubChem BioAssay AID743388 (Vanderbilt Specialized Chemistry Center, 2014) come the findings set out here.

Several values for one entry are separate records, joined by “and”; a condition that tells them apart may be missing. Identical values can stand only once. Activity calls are given as the source filed them. The rule behind the calls is not given here.

In this assay the target is Phospholipase D1 (Homo sapiens) (UniProt Q13393). The experiment in a line: cellular phospholipase D1 activity inhibition – cell-based (AID 743388). Conditions: Calu-1 cells, PMA-stimulated, PtdBuOH-d9 by mass spectrometry, 30 min; at 20 µM; active compounds read high.
Phospholipase D1 (Homo sapiens), sequence (Q13393 whole entry, looked up): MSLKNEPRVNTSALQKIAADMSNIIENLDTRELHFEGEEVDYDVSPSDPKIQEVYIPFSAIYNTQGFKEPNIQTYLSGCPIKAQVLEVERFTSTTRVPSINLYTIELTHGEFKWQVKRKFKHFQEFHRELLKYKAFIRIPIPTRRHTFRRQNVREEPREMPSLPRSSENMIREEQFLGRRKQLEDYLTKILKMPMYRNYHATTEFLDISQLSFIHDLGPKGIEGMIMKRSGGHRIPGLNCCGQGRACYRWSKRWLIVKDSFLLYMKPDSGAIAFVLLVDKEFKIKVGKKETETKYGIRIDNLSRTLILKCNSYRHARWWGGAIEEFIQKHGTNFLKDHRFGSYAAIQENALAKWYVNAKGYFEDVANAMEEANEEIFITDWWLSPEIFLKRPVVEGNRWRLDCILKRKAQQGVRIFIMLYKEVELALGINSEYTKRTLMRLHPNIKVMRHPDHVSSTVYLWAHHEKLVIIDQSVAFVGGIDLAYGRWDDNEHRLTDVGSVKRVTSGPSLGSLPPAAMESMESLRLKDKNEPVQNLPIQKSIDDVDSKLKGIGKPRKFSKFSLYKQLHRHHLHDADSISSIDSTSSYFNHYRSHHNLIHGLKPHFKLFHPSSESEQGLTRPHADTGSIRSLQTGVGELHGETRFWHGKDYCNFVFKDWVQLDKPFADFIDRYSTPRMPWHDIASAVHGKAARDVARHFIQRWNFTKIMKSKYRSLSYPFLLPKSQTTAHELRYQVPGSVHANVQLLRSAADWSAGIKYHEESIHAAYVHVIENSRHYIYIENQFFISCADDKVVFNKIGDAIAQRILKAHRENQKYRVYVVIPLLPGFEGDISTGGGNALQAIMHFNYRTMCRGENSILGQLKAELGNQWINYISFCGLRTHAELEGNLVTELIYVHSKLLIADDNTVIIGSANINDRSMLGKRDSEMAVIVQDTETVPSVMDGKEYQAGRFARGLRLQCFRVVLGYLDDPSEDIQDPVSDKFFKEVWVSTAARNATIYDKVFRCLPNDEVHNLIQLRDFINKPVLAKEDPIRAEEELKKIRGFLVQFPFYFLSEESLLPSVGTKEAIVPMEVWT
Usually inhibition stands for the percentage by which the read-out fell short of the control. With `O=C(NCCN1CCC2(CC1)C(=O)NCN2Cc1ccccc1Cl)c1ccc2ccccc2c1`, the inhibition was 91%.

`O=C(NCCN1CCC2(CC1)C(=O)NCN2Cc1cccnc1)c1cccc(F)c1`: the inhibition is 2% (inactive).

As to `Cn1cc(C(=O)NCCN2CCC3(CC2)C(=O)NCN3Cc2cccnc2)c2ccccc21`, the inhibition was 5% (inactive).

Regarding `O=C(NCCN1CCC2(CC1)C(=O)NCN2c1cncc(F)c1)c1cc2cc(F)ccc2[nH]1`, the inhibition was 26% (inactive).

Take `O=C(NCCN1CCC2(CC1)C(=O)NCN2Cc1ccccc1)c1ccc2ccccc2c1`: the inhibition is 72%.

With `O=C(NCCN1CCC2(CC1)C(=O)NCN2Cc1cccnc1)c1c(F)ccc(Cl)c1F`, the inhibition was 0% (inactive).

Take `O=C(NCCN1CCC2(CC1)C(=O)NCN2c1cncc(F)c1)c1ccc(Br)cc1`: the inhibition was 12% (inactive).

Take `O=C(NCCN1CCC2(CC1)C(=O)NCN2c1ccnc(Cl)c1)c1ccc2ccccc2c1`: the inhibition is 0% (inactive).

Regarding `O=C(NCCN1CCC2(CC1)C(=O)NCN2Cc1ccccc1F)c1ccc2ccccc2c1`, the inhibition was 77% and 87%.

Consider `O=C(NCCN1CCC2(CC1)C(=O)NCN2Cc1cccnc1)c1cccc(Cl)c1`, for which the inhibition is 0% (inactive).

As for `O=C(NCCN1CCC2(CC1)C(=O)NCN2Cc1cccnc1)c1ccc2c(c1)C(=O)NC2=O`, the inhibition is 13% (inactive).

In the case of `COc1cc(C(=O)NCCN2CCC3(CC2)C(=O)NCN3Cc2cccnc2)cc(OC)c1OC`, the inhibition is 0% (inactive).

Take `O=C(NCCN1CCC2(CC1)C(=O)NCN2c1cncc(F)c1)c1ccc(F)c(F)c1`: the inhibition was 17% (inactive).

As for `O=C(NCCN1CCC2(CC1)C(=O)NCN2c1cccnc1)c1cc(F)c(F)c(F)c1`, the inhibition was 6% (inactive).

Regarding `O=C(NCCN1CCC2(CC1)C(=O)NCN2Cc1ccc(Cl)cc1)c1ccc2ccccc2c1`, the inhibition was 64%.

`O=C(NCCN1CCC2(CC1)C(=O)NCN2Cc1ccccn1)c1ccc2ccccc2c1`: the inhibition is 88%.

Consider `O=C(NCCN1CCC2(CC1)C(=O)NCN2Cc1ccncc1)c1ccc2ccccc2c1`, for which the inhibition is 53%.

Turning to `O=C(NCCN1CCC2(CC1)C(=O)NCN2Cc1cccnc1)c1ccc(Cl)cc1F`, the inhibition was 0% (inactive).

As to `O=C(NCCN1CCC2(CC1)C(=O)NCN2Cc1cccnc1)c1cc2ccccc2o1`, the inhibition is 14% (inactive).

Regarding `O=C(NCCN1CCC2(CC1)C(=O)NCN2C(=O)C1CCC1)c1ccc2ccccc2c1`, the inhibition was 80%.

`O=C(NCCN1CCC2(CC1)C(=O)NCN2c1cncc(F)c1)c1ccc(F)cc1`: the inhibition is 25% (inactive).

With `O=C(NCCN1CCC2(CC1)C(=O)NCN2Cc1cccnc1)c1ccc2ccccc2c1Br`, the inhibition is 10% (inactive).

Consider `O=C(NCCN1CCC2(CC1)C(=O)NCN2Cc1cccnc1)c1cc2cccnc2[nH]1`, for which the inhibition was 16% (inactive).

Turning to `O=C(NCCN1CCC2(CC1)C(=O)NCN2Cc1cccnc1)c1cccc(C(F)(F)F)c1`, the inhibition is 0% (inactive).

With `O=C(NCCN1CCC2(CC1)C(=O)NCN2Cc1cccnc1)c1ccc(F)c(F)c1`, the inhibition was 3% (inactive).

On to `O=C(NCCN1CCC2(CC1)C(=O)NCN2Cc1cccc(Cl)c1)c1ccc2ccccc2c1`, for which the inhibition is 89%.

For `O=C(NCCN1CCC2(CC1)C(=O)NCN2c1cccnc1)c1ccc(F)cc1`, the inhibition is 7% (inactive).

On to `O=C(NCCN1CCC2(CC1)C(=O)NCN2Cc1cccnc1)c1cc2cc(F)ccc2[nH]1`, for which the inhibition was 4% (inactive).

For the molecule `O=C(NCCN1CCC2(CC1)C(=O)NCN2Cc1cccnc1)c1cc2ccccc2[nH]1`, the inhibition is 64%.

As to `Cc1cc(Br)cnc1C(=O)NCCN1CCC2(CC1)C(=O)NCN2Cc1cccnc1`, the inhibition is 0% (inactive).

Regarding `O=C(NCCN1CCC2(CC1)C(=O)NCN2C(=O)C1CC1)c1ccc2ccccc2c1`, the inhibition was 83%.

As to `O=C(NCCN1CCC2(CC1)C(=O)NCN2Cc1cccnc1)c1nc(-c2ccc(F)cc2)no1`, the inhibition is 30% (inactive).

For the molecule `O=C(NCCN1CCC2(CC1)C(=O)NCN2Cc1cccnc1)c1ccc(F)cc1F`, the inhibition was 7% (inactive).

On to `O=C(NCCN1CCC2(CC1)C(=O)NCN2Cc1cccnc1)c1c[nH]c2ccccc12`, for which the inhibition was 25% (inactive).

Regarding `Cc1ccc(S(=O)(=O)NCCN2CCC3(CC2)C(=O)NCN3Cc2cccnc2)cc1`, the inhibition is 0% (inactive).

On to `O=C(NCCN1CCC2(CC1)C(=O)NCN2Cc1cccnc1)c1ccc2ccccc2n1`, for which the inhibition was 11% (inactive).

As for `O=C(NCCN1CCC2(CC1)C(=O)NCN2Cc1cccnc1)c1ccc(Cl)cc1Cl`, the inhibition was 0% (inactive).

For `O=C(NCCN1CCC2(CC1)C(=O)NCN2Cc1cccc2ccccc12)c1ccc2ccccc2c1`, the inhibition was 94%.

In the case of `O=C(NCCN1CCC2(CC1)C(=O)NCN2c1cncc(F)c1)c1ccc2ccccc2c1`, the inhibition is 14% (inactive).

On to `O=C(NCCN1CCC2(CC1)C(=O)NCN2Cc1cccnc1)c1sc2ncccc2c1-n1cccc1`, for which the inhibition is 29% (inactive).

For `O=C(NCCN1CCC2(CC1)C(=O)NCN2Cc1cccnc1)c1ccc(F)cc1Cl`, the inhibition is 0% (inactive).

Regarding `O=C(NCCN1CCC2(CC1)NCNC2=O)c1ccc2ccccc2c1`, the inhibition was 7% (inactive).

Turning to `O=C(NCCN1CCC2(CC1)C(=O)NCN2Cc1cccnc1)c1ccc(C(F)(F)F)cc1`, the inhibition was 0% (inactive).

Take `O=C(NCCN1CCC2(CC1)C(=O)NCN2Cc1cccnc1)c1cc(F)c(F)c(F)c1`: the inhibition was 0% (inactive).

`O=C(NCCN1CCC2(CC1)C(=O)NCN2Cc1cccnc1)c1c(Cl)cncc1Cl`: the inhibition is 20% (inactive).

As for `O=C(NCCN1CCC2(CC1)C(=O)NCN2C(=O)c1ccccc1)c1ccc2ccccc2c1`, the inhibition is 45% (inactive).

In the case of `O=C(NCCN1CCC2(CC1)C(=O)NCN2c1cncc(Br)c1)c1ccc2ccccc2c1`, the inhibition was 9% (inactive).

As to `O=C(NCCN1CCC2(CC1)C(=O)NCN2c1ccnc(F)c1)c1ccc2ccccc2c1`, the inhibition was 3% (inactive).

Take `O=C(NCCN1C=CC2(CC1)C(=O)NCN2Cc1cccnc1)c1cccc2nsnc12` (stereo not drawn): the inhibition is 9% (inactive).

As to `O=C(NCCN1CCC2(CC1)C(=O)NCN2c1cccnc1)c1ccc2ccccc2c1`, the inhibition is 7% (inactive).

In the case of `O=C(NCCN1CCC2(CC1)C(=O)NCN2c1cccnc1)c1ccc(Br)cc1`, the inhibition is 0% (inactive).

As to `O=C(NCCN1CCC2(CC1)C(=O)NCN2Cc1cccnc1)c1ccc(F)cc1`, the inhibition was 3% (inactive).

Regarding `O=C(NCCN1CCC2(CC1)C(=O)NCN2Cc1cccnc1)c1cccs1`, the inhibition is 3% (inactive).

With `O=C(NCCN1CCC2(CC1)C(=O)NCN2Cc1cccnc1)c1ccc(SC(F)(F)F)cc1`, the inhibition was 5% (inactive).

Regarding `O=C(NCCN1CCC2(CC1)C(=O)NCN2Cc1cccnc1)[C@@H]1C[C@H]1c1ccccc1`, the inhibition was 23% (inactive).

Regarding `Cc1nc2sc(C(=O)NCCN3CCC4(CC3)C(=O)NCN4Cc3cccnc3)c(N)c2c(C)c1C`, the inhibition is 9% (inactive).

In the case of `O=C(NCCN1CCC2(CC1)C(=O)NCN2C(=O)c1cccc(F)c1)c1ccc2ccccc2c1`, the inhibition is 50%.

Turning to `O=C(NCCN1CCC2(CC1)C(=O)NCN2c1cncc(F)c1)c1cc(F)c(F)c(F)c1`, the inhibition is 17% (inactive).

As to `Cn1c(C(=O)NCCN2CCC3(CC2)C(=O)NCN3Cc2cccnc2)cc2ccccc21`, the inhibition is 10% (inactive).

Consider `O=C(NCCN1CCC2(CC1)C(=O)NCN2Cc1cccnc1)c1ccc(Br)cc1`, for which the inhibition is 9% (inactive).

With `COc1cccc(C(=O)N2CNC(=O)C23CCN(CCNC(=O)c2ccc4ccccc4c2)CC3)c1`, the inhibition was 50%.

With `Cc1cc(C)c2cc(C(=O)NCCN3CCC4(CC3)C(=O)NCN4Cc3cccnc3)[nH]c2c1`, the inhibition is 13% (inactive).

In the case of `O=C(NCCN1CCC2(CC1)C(=O)NCN2c1cccnc1)c1ccc(F)c(F)c1`, the inhibition is 16% (inactive).

With `O=C(NCCN1CCC2(CC1)C(=O)NCN2Cc1cccnc1)c1ccc(Cl)c(Cl)c1`, the inhibition was 13% (inactive).

`O=C(NCCN1CCC2(CC1)C(=O)NCN2Cc1cccc(OC(F)(F)F)c1)c1ccc2ccccc2c1`: the inhibition is 10% (inactive).

For `O=C(NCCN1CCC2(CC1)C(=O)NCN2Cc1cccnc1)c1ccc(F)cc1C(F)(F)F`, the inhibition was 0% (inactive).

Take `O=C(NCCN1CCC2(CC1)C(=O)NCN2Cc1cccnc1)c1cc(F)cc(F)c1`: the inhibition was 0% (inactive).

In the case of `O=C(NCCN1CCC2(CC1)C(=O)NCN2c1ccc(C(F)(F)F)nc1)c1ccc2ccccc2c1`, the inhibition is 2% (inactive).

As for `O=C(NCCN1CCC2(CC1)C(=O)NCN2Cc1cccnc1)c1ccccc1F`, the inhibition is 0% (inactive).

Take `Cc1cc(N2CNC(=O)C23CCN(CCNC(=O)c2ccc4ccccc4c2)CC3)ccn1`: the inhibition was 7% (inactive).

As for `O=C(NCCN1CCC2(CC1)C(=O)NCN2Cc1cccnc1)c1ccnc2ccccc12`, the inhibition is 13% (inactive).

On to `O=C(NCCN1CCC2(CC1)C(=O)NCN2Cc1cccnc1)c1ccc2ccccc2c1`, for which the inhibition is 37% (inactive) and 38% (inactive).

Regarding `O=C(NCCN1CCC2(CC1)C(=O)NCN2Cc1cccnc1)c1nccc2ccccc12`, the inhibition is 0% (inactive).

`O=C(NCCN1CCC2(CC1)C(=O)NCN2Cc1ccccc1Br)c1ccc2ccccc2c1`: the inhibition is 96%.

Regarding `O=C(NCCN1CCC2(CC1)C(=O)NCN2CC1CC1)c1ccc2ccccc2c1`, the inhibition was 43% (inactive).

`O=C(NCCN1CCC2(CC1)C(=O)NCN2Cc1cccnc1)c1ccc2cc(F)ccc2c1`: the inhibition is 9% (inactive).

In the case of `O=C(NCCN1CCC2(CC1)C(=O)NCN2c1cccnc1)c1cc2cc(F)ccc2[nH]1`, the inhibition was 9% (inactive).

As to `O=C(NCCN1CCC2(CC1)C(=O)NCN2Cc1cccnc1)c1cccc2cccnc12`, the inhibition is 4% (inactive).
